# Laboratory results published in patent US10064826B2, “Direct compression and dry granulation processes for preparing carglumic acid tablets having less impurities than those produced by wet granulation process” (Navinta, LLC, priority 2013, dated 2018).
# Assay: Stability under stress conditions (alkaline, acidic, light, oxidizing medium)
# Type: physicochemical
# Conditions: light or hydrogen peroxide
# Procedure: Both batches of carglumic acid tablets from Examples 1 and 2 are also evaluated for stability under stress conditions.
# Principal degradation products are hydantoin-5-propionic acid (“5-HPA”) and diaza-1,3-dione-2,4-carboxy-7-cycloheptane. Among them, 5-HPA is toxic and thus it must be controlled below 0.1%. L-Pyroglutamic acid is another common impurity in the carglumic acid tablet.
compound,measurement,value
"NC(=O)N[C@@H](CCC(=O)O)C(=O)O [Carglumic acid, (2S)-2-(carbamoylamino)pentanedioic acid]",Degradation when exposed to light or an oxidizing medium,slowly degraded
